Results: EP1591123A1, “USES OF NARINGENIN, NARINGIN AND SALTS THEREOF AS EXPECTORANTS IN THE TREATMENT OF COUGH, AND COMPOSITIONS THEREOF” (Su, Wei-wei, priority 2003, dated 2004)
Structures can show the parent of a compound that is named as a salt.

How the values were obtained:
[1] = test system: mice; assay: Antitussive test of Naringenin, spray by high concentration ammonia (Example 30); assay type: in vivo; conditions: sample concentration 1.5 mg/ml
Description: 1. Animal: 120 healthy male mice weighing 19.5-22.1g was grouped into 8 groups random after labeled, which was selected from 130 male mice weighing 19.3-22.6g. Every group was 15 mice. Eight group were set including negative control group, positive control group, high dose group of Naringenin, middle dose group of Naringenin, low dose group of Naringenin, high dose group of sodium salt of Naringenin, middle dose group of sodium salt of Naringenin, low dose group of sodium salt of Naringenin.
• 1) Blank control group: physiological saline, 0.9% NaCl; • 2) Positive control group: 30mg Dextromethorphan Hydrobromide was dissolve into 20 ml physiological saline and the sample concentration was 1.5 mg/ml to obtain the solution for positive control. • 3) low dose group of Naringenin: weighting out the appropriate amount of Naringenin and dissolving it in physiological saline, then the sample concentration was 0.5 mg/ml. • 4) middle dose group of Naringenin: weighting out the appropriate amount of Naringenin and dissolving it in physiological saline, then the sample concentration was 1.5mg/ml. • 5) high dose group of Naringenin: weighting out the appropriate amount of Naringenin and dissolving it in physiological saline, then the sample concentration was 4.5 mg/ml. • 6) low dose group of sodium salt of Naringenin: weighting out the appropriate amount of sodium salt of Naringenin and dissolving it in physiological saline, then the sample concentration was 0.5 mg/ml. • 7) middle dose group of sodium salt of Naringenin: weighting out the appropriate amount of sodium salt of Naringenin and dissolving it in physiological saline, then the sample concentration was 1.5 mg/ml. • 8) high dose group of sodium salt of Naringenin: weighting out the appropriate amount of sodium salt of Naringenin and dissolving it in physiological saline, then the sample concentration was 4.5 mg/ml.
Animals were oral administered, and were sprayed one hour later. After the spray took out the animals and observed the tussive action. Observed the time of tussis in one minutes, if it appeared typical tussis three times in one minutes(shrinking the abdomen muscle or shrinking chest, puffing mouth at the same time, sometimes appearing tussive sound), we consider it "appearing tussis", otherwise "no tussis".
We calculated the spraying time that half of mice were tusisive by sequential method. And calculated the R, the drug was provided with effect of relieve a cough if R>130%. The drug was provided with remarkable effect of relieve a cough if R>150%. Underside is expressions: R=(EDT50 of the treatment)/(EDT50 of the control)× 100% [formula] EDT50=log^-1c/n ('n' is the number of animal, 'c' is the sum of 'rx' value, 'r' is the number of animal in every group, 'x' is the logarithm of dose(namely spray time).)

[2] = test system: NIH mice; assay: Antitussive test of Naringin, spraying with concentrated ammonia liquor (Example 28); assay type: in vivo; conditions: 0.2 ml/20g of 1.5 mg/ml
Description: 1.Animals: As the stock animals, totally 130 NIH mice, male, each weighed 18.2~21.7g within ordinary standard. Weigh and number each mice accurately first, then pick out the 120 healthy ones who weighed in range from 18.5~21.0g. Ranked in weigh, they were divided into 8 groups in random with each 15. Set up reference groups of negative and positive, and sample groups of high-dose, mid-dose, low-dose Naringin and sodium Naringinate.
• 1) Blank control group: physiological saline, 0.9% NaCl; • 2) Positive control group: 30 mg dextromethorphan hydrobromide was weighed into a 20ml volumetric flask, and physiological saline was accurately added to the volume to obtain the solution for positive control at concentration of 5mg/ml° • 3) Group of low-dose sample Naringin: Proper amount of Naringin was weighed into a suitable volumetric flask, and physiological saline was added to the volume to obtain the solution at concentration of 0.5mg/ml. • 4) Group of mid-dose sample Naringin: Proper amount of Naringin was weighed into a suitable volumetric flask, and physiological saline was added to the volume to obtain the solution at concentration of 1.5mg/ml. • 5) Group of high-dose sample Naringin: Proper amount of Naringin was weighed into a suitable volumetric flask, and physiological saline was added to the volume to obtain the solution at concentration of 4.5mg/ml. • 6) Group of low-dose sample sodium Naringinate: Proper amount of sodium Naringin was weighed into a suitable volumetric flask, and physiological saline was added to the volume to obtain the solution at concentration of 0.5mg/ml. • 7) Group of mid-dose sample sodium Naringinate: Proper amount of sodium Naringin was weighed into a suitable volumetric flask, and physiological saline was added to the volume to obtain the solution at concentration of 1.5mg/ml. • 8) Group of high-dose sample sodium Naringinate: Proper amount of sodium Naringin was weighed into a suitable volumetric flask, and physiological saline was added to the volume to obtain the solution at concentration of4.5mg/ml.
One hour after intra-gastrointestinal administering for the mice, spray with concentrated ammonia liquor for certain intervals. Immediately the spraying was over, put away the mice outside and observe the tussive action. Mark down the times for which they coughed within 1 minute. Only when they coughed, which was characteristic of compression of abdomen or chest with their mouths open, and making coughing noise, for more than 3 times within a minute, tussive action could be admitted.
Calculate the median effective dose(EDT50) with sequential trials. Work out the amount of R with the formula below. If R is greater than 130%, it means the drug will be effective on antitussive action. If R is greater than 150%, it means the drug will be remarkably effective on antitussive action. The formula is shown as below: R =(EDT50 of the treatmnet)/(EDT50 of the control)× 100% [formula] EDT50=log-1c/n(n for amount of animals, c for summation of rx, r for amount of animals in each group, x for logarithm of the dose (time for spraying) )

[3] = EDT50 of the treatment / EDT50 of the control x 100%

## COc1ccc2c(c1)[C@]13CCCC[C@@H]1[C@H](C2)N(C)CC3 [Dextromethorphan Hydrobromide, reference compound]
[1]; [3]
  R Value: 138.05%
[1]; mice, oral, dose 0.2 (mg/20g), spray one hour later
  EDT50: 53.70 s
[1]
  Effect of relieving cough: effect (the drug was provided with effect of relieve a cough if R>130%)
[2]
  Effect of relieving cough: effective (If R is greater than 130%, it means the drug will be effective on antitussive action)
[2]; [3]
  R Value: 140.23%
[2]; mice, intra-gastrointestinal, ammonia spray 1 hour after dosing
  EDT50: 56.82 s
